The test system of data set [1] is SARS-CoV-2, isolate USA-WA1/2020. Put plainly: microbe, parasite or virus in culture. The class given is cell-based. The settings on record: HeLa-ACE2 SARS-CoV-2 antiviral effect without P-gp inhibitor; for perc_max_measured: maximum measured response of dose series; for perc_min_measured: minimum measured response of dose series; for EC50: read-out: ec50; for EC90: read-out: ec90.

A short description of data set [2]: Hepatic microsomal stability, HLM. The class given is in vitro ADME, human. The conditions noted are these: In vitro human liver microsomal stability; for perc_remaining_no_cofactor: no cofactor.
Data set [3] is described as follows: Hepatic microsomal stability, MLM. It counts as in vitro ADME.
In another data set the test system is HeLa-ACE2 cells. The settings on record: for perc_max_measured: highest measured response of the dose series; for perc_min_measured: lowest measured response of the dose series.
The nature of the next data set: LogD. The settings on record: pH 7.4; In vitro LogD.
The next data set can be described thus: in vitro. The conditions noted are these: human, hela-ace2 cells, 50.0.
Data set [4] is described as follows: In vitro kinetic solubility. The settings on record: In vitro kinetic solubility, ph 7.4.
A short description of data set [5]: Permeability Papp (AB) MDR1/MDCKII. The settings on record: In vitro MDR1-MDCKII permeability, mean; for papp_a_to_b_mean: A to B; for perc_recovery_a_to_b_mean: recovery A to B.
[6] abbreviates: In vitro mouse liver microsomal stability.
Setting [7] is: In vitro mouse liver microsomal stability; no cofactor.
Setting [8] is: protocol HeLa-ACE2 cytotoxicity.

The structures appear in SMILES notation. ≈ marks a conversion by molar mass, not a printed value. Where “and” joins values, the source holds several entries; their conditions need not be identical. Equal values may be shown once. Read-outs that look alike come from different tables or passages of the source.

For the molecule `CC(C)[C@@H](Nc1ncnc2[nH]c(-c3cnn(CCC(N)=O)c3)cc12)c1ccc2c(c1)OCCO2` [ASAP-0008482], in data set [1], the perc_max_measured is 121.913% and 112.19%; the perc_min_measured was 97.771% and 96.19%; the EC50 was > 20 µM; the 90% effect concentration (EC90) is > 20 µM. Also, in data set [2], the clint amounted to 99.0 µL/min/mg, the perc_remaining is 19.0%, the t_half is 16.9 min and the perc_remaining_no_cofactor worked out at 108.0%. In data set [3] (setting [6]), the clint turned out to be 62.0 µL/min/mg, the perc_remaining is 36.0% and the t_half is reported as 27.1 min. The perc_remaining_no_cofactor in data set [3] (setting [7]) is reported as 106.0%. Besides, in the data set on HeLa-ACE2 cells (setting [8]), the CC50 is > 20 µM; the perc_max_measured was 111.916% and 92.58%; the perc_min_measured is 82.711% and 77.006%. This molecule also gave a logd in “LogD” of 3.0. For the same molecule, the half-maximal cytotoxic concentration (CC50) at 24 h in the data set “in vitro” is > 20 µM. Besides, the solubility_mean in data set [4] turned out to be 236 µM (≈ 109 µg/mL). In data set [5], the papp_a_to_b_mean came out at 1.46 ×10⁻⁶ cm/s and the perc_recovery_a_to_b_mean was determined as 88.9%.
Turning to `CC(C)[C@@H](Nc1ncnc2[nH]c(-c3cnn(CC(=O)N(C)C)c3)cc12)c1ccc2c(c1)OCCO2` [ASAP-0008485], in data set [1], the perc_max_measured is 120.313% and 102.904%; the perc_min_measured was 86.961% and 72.697%; the half-maximal effective concentration (EC50) was > 20 µM; the EC90 is > 20 µM. In addition, in data set [2], the clint was 142.0 µL/min/mg, the perc_remaining came to 9.0%, the t_half is 11.8 min and the perc_remaining_no_cofactor came to 110.0%. In data set [3] (setting [6]), this molecule gave a clint of 59.0 µL/min/mg, a perc_remaining of 39.0% and a t_half of 28.1 min. Also, the perc_remaining_no_cofactor in data set [3] (setting [7]) stood at 98.0%. In addition, in the data set with HeLa-ACE2 cells (setting [8]), the 50% cytotoxic concentration (CC50) is > 20 µM; the cc10 was > 20.0 µM; the perc_max_measured is 96.628% and 85.957%; the perc_min_measured was 73.752% and 75.897%. Besides, the logd in the data set “LogD” is reported as 2.3. Further, the CC50 at 24 h in “in vitro” is > 20 µM. In data set [4], the solubility_mean was 210 µM (≈ 99.9 µg/mL). In data set [5], this molecule registered a papp_a_to_b_mean of 1.15 ×10⁻⁶ cm/s and a perc_recovery_a_to_b_mean of 80.8%.
For the molecule `CCNC(=O)c1cc2c(N[C@@H](c3ccc4c(c3)S(=O)(=O)NCC4)C(C)C)ncnc2[nH]1` [ASAP-0011076], in data set [1], the perc_max_measured is on record as 101.15%, the perc_min_measured amounted to 78.382%, the EC50 is > 20 µM and the EC90 is > 20 µM. Moreover, in data set [2], the clint came to 85.0 µL/min/mg, the perc_remaining came to 24.0%, the t_half is on record as 19.7 min and the perc_remaining_no_cofactor worked out at 107.0%. In addition, in data set [3] (setting [6]), the clint came out at 45.0 µL/min/mg, the perc_remaining is on record as 49.0% and the t_half was 36.8 min. Besides, the perc_remaining_no_cofactor in data set [3] (In vitro mouse liver microsomal stability, no cofactor) turned out to be 101.0%. In addition, in the data set with HeLa-ACE2 cells (HeLa-ACE2 cytotoxicity), the CC50 is > 20 µM, the cc10 is > 20.0 µM, the perc_max_measured is listed as 99.412% and the perc_min_measured is 92.285%. The logd in the data set “LogD” was determined as 2.6. In addition, the half-maximal cytotoxic concentration (CC50) at 24 h in the data set “in vitro” was > 20 µM. Moreover, the solubility_mean in data set [4] came to 344 µM (≈ 152 µg/mL). In data set [5], this molecule yielded a papp_a_to_b_mean of 1.96 ×10⁻⁶ cm/s and a perc_recovery_a_to_b_mean of 97.7%.

The record behind these values is paper doi:10.1101/2024.08.19.608619, “Discovery of potent SARS-CoV-2 nsp3 macrodomain inhibitors uncovers lack of translation to cellular antiviral response” (bioRxiv, 2024).
